Experimental data taken from patent EP2125023B1, “SOLUBLE FORMS OF INCLUSION COMPLEXES OF HISTONE DEACETYLASE INHIBITORS AND CYCLODEXTRINS, THEIR PREPARATION PROCESSES AND USES IN THE PHARMACEUTICAL FIELD” (Universita'Degli Studi di Roma "La Sapienza", priority 2007, dated 2008).

Assay: Solubility tests on SAHA in aqueous HPβCD solutions by UV spectrophotometry
Type: physicochemical
Conditions: for Concentration: dissolved SAHA in the filtered solution brought to 10 ml, by Lambert and Beer's law with mean ε; for Assorbance (AU): water, one week stirring at room temperature, filtered, brought to 10 ml, read at 240 nm
Experimental: Five aqueous solutions of SAHA in cyclodextrin were prepared, maintaining a constant amount of drug and gradually increasing the cyclodextrin concentraion.
Two mg of SAHA (0.0075 mmol) are weighed in five assay tubes and to each is added 1 ml of a solution of 2-hydroxypropyl-β-cyclodextrin (HPβCD) in double-distilled water; we started with a molar ratio of 1:1 corresponding to 0.0116 g of cyclodextrin, proceeding then with molar ratios of 1:2 corresponding to 0.0232 g, 1:3 corresponding to 0.035 g, 1:4 corresponding to 0.046, up to a final ratio of 1:5, corresponding to 0.058 g of cyclodextrin.
The tubes thus prepared and well sealed are left for one week under stirring in a mechanical stirrer at room temperature.
At the end of this period, the solutions are filtered with a 0.5 µm diameter membrane filter in five 10 ml round-bottomed flasks brought to volume with double-distilled water, and the spectrophotometric readings are taken at 240 nm.
From the mean value of ε calculated previously, and using Lambert and Beer's law, the millimolar concentrations of the five solutions can be calculated, as shown in the table.

- Concentration (SAHA:HPβCD molar ratio 1:1): 126 µM
- Assorbance (AU) (SAHA:HPβCD molar ratio 1:1): 1.6862 AU
- Concentration (SAHA:HPβCD molar ratio 1:2): 191 µM
- Assorbance (AU) (SAHA:HPβCD molar ratio 1:2): 2,5591 AU
- Concentration (SAHA:HPβCD molar ratio 1:3): 196 µM
- Assorbance (AU) (SAHA:HPβCD molar ratio 1:3): 2.6196 AU
- Concentration (SAHA:HPβCD molar ratio 1:4): 207 µM
- Assorbance (AU) (SAHA:HPβCD molar ratio 1:4): 2.7752 AU
- Concentration (SAHA:HPβCD molar ratio 1:5): 216 µM
- Assorbance (AU) (SAHA:HPβCD molar ratio 1:5): 2.8932 AU
SMILES: O=C(CCCCCCC(=O)Nc1ccccc1)NO [SAHA, suberoylanilide hydroxamic acid]
